“And” between values parts separate entries of the source, which are not always exact repeats. Equal values may be shown once. “Also recorded” adds a separate entry of the source.

This note sets out measurements from patent US4698431A, “Hydroxypyridonate chelating agents” (priority 1985, dated 1987).

The nature of series [1]: Acute toxicity in mice, single i.p. injection. As to conditions: mouse, in vivo, ip, Table 3, 1000 (*) or 500 (**) μmole/kg, read-out: acute toxicity (asterisk), lethality in 7 days. The procedure:
A test of acute toxicity was also carried out, as follows. Two mice were each given a single i.p. injection of 100, 500, or 1000 μmole/kg of ligand dissolved in 0.5 to 1.0 ml of saline at pH=7.5. Sparingly soluble ligands, dispersed by sonication, were given as finely divided suspensions. After 7 days observation, the mice were killed, selected tissues were removed and fixed for histopathological examination, and unusual findings at autopsy were recorded.
^a Single or double asterisks indicate acutely toxic (50% to 100%
lethality) in 7 days after a single i.p. injection of 1000 or 500
μmole/kg, respectively.

In another series the test system is transferrin. The experiment in a line: Removal of iron from transferrin. The class given is biochemical. The procedure:
(§1) Removal of Iron From Transferrin: The effectiveness of 3HOPOCAM as a ferri ion chelator was evaluated in terms of its potential for removing iron from transferrin. In order to account for the effect of proton competitio in the ligand strength comparisons, the relative ironbinding abilities of the ligands were ranked by the pM value, defined as -log [Fe^+3 ] of pH 7.4 solution that is 10^-5 M in total ligand and 10^-6 M in total iron. The pM for 3HOPOCAM was determined (by binding competition experiments with EDTA) to be 21.7, about 4 to 14 units lower than the pM value for siderophores containing three bidentate catechol or hydroxamate groups. […] Ligands incorporating more than two "HOPO" groups should be effective in removing iron from transferrin at even lower concentrations.

The nature of series [2]: Relative iron-binding ability (pM value) by binding competition with EDTA. The method, then:
as §1

Series [3] in a line: Promotion of excretion of ^238 Pu(IV) in mice. It counts as in vivo. As to conditions: for Pu / actinide removal, in words: mouse, in vivo. The method, then: The novel chelating agents of the present invention were tested for their effectiveness in promoting excretion of ^238 Pu(IV) in mice as follows. Groups of five mice each received an intravenous injection of […] of ^238 Pu(IV) in citrate buffer, 9250 Bq/kg body wt. One hour later 30 μmole/kg of ligand (120 μmole/kg of monomeric ligands) was injected intraperitoneally in 0.5 ml of saline. The mice were killed 24 h after the Pu injection, frozen, and dissected after partial thawing. The ^238 Pu in skeleton, tissues, and separated excreta was determined by counting of the ^234 U L xrays.
^c Ligand was administered (30 μmole/kg, i.p.) at 1 hr and mice
were killed at 24 hr after injection (i.v.) of ^238 Pu(IV) citrate.
Dosage of monomers, HOPO--CO2 H and HOPO--COMe2, was 120

The nature of series [4]: Iron removal bioassay in iron-loaded (transfused) mice. The class given is in vivo. The procedure:
DFHOPOCAM was tested for its effectiveness in removing iron from iron-loaded mice. The mice tested had undergone three transfusions over five days of heat-treated canine red blood cells. Both low i.p. doses (about 20 mg/kg) and high doses (about 200 mg/kg) were administered, in aqueous solution.
Changes in splenic, hepatic, fecal and urinary iron in transfused
male mice treated with potential iron chelators for several days

Where [5] appears, read: higher dose, about 200 mg/kg i.p.

With `O=C(NCCCN(CCCCN(CCCNC(=O)c1cccc(=O)n1O)C(=O)c1cccc(=O)n1O)C(=O)c1cccc(=O)n1O)c1cccc(=O)n1O` [3,4,3-HOPOCAM], the mortality at 168 h in series [1] lay within 50 to 100%.

As to `O=C(NCCCCN(CCCNC(=O)c1cccc(=O)n1O)C(=O)c1cccc(=O)n1O)c1cccc(=O)n1O` [3,4-HOPOCAM], the mortality at 168 h in series [1] lay within 50 to 100%.

For `O=C(NCCCNC(=O)c1cccc(=O)n1O)c1cccc(=O)n1O` [3-HOPOCAM], in the series on transferrin, the “concentration at which iron was removed from transferrin” value was “approximately mM concentrations”. Besides, in the series on transferrin (30 min., 1.6 mM solution), the “iron removed from transferrin” value is reported as “about 29%”. Further, in series [2] (pH 7.4, 10^-5 M total ligand, 10^-6 M total iron, competition with EDTA), the “pM value (-log [Fe^+3 ])” value amounted to 21.7.

As to `O=C(O)CN(CCN(CC(=O)O)CC(=O)O)CCN(CC(=O)O)CC(=O)O` [CaNa3 --DTPA, reference compound], in series [3] (ligand 30 μmole/kg i.p. at 1 hr, killed 24 hr after Pu), the “^238 Pu Excreta (urine and feces, one value)” value is given as 70% of injected ^238 Pu.

Regarding `CC(=O)N(O)CCCCCNC(=O)CCC(=O)N(O)CCCCCNC(=O)CCC(=O)N(O)CCCCCNC(=O)c1cccc(=O)n1O` [DFHOPOCAM], in series [4] (20 mg/kg i.p.), the “Number Survivors” value was 10/10; the “Percent Iron Changes vs. Control, Feces” value is reported as “+21%”; the “Percent Iron Changes vs. Control, Liver” value is reported as -28%; the “Percent Iron Changes vs. Control, Spleen” value is recorded as -11%. Besides, in series [4] (20 mg/kg i.p.), the “Percent Iron Changes vs. Control, Urine” value is “+39%”; the “Potency vs. Standard” value came to 4.5; the “Toxic Signs” value was “none”. In series [4] (200 mg/kg i.p.), the “Number Survivors” value is 10/10; the “Percent Iron Changes vs. Control, Feces” value is “+4%”; the “Percent Iron Changes vs. Control, Liver” value was -59%; the “Percent Iron Changes vs. Control, Spleen” value is -17%. Besides, in series [4] (200 mg/kg i.p.), the “Percent Iron Changes vs. Control, Urine” value is on record as “+93%” and the “Potency vs. Standard” value was found to be 0.8. Moreover, the “damage to excretory pathways from excess metabolic iron” value in series [4] (about 20 and about 200 mg/kg i.p., daily excreta, five-day recovery period) was “reversal of most of the damage to excretory pathways”. Besides, the source of iron result in series [4] (both low and high doses) was “predominantly the liver”. In addition, the “Potency relative to Desferal” value in series [4] (dose not given) is reported as “about 4.5”. Further, in series [4] (setting [5]), the “behavior and major organs” value is listed as “not grossly affected”; the “change in fecal iron content, in words” value is listed as “little change in iron content”; the “change in urine volume” value was -6%; the “decrease in liver iron” value came out at 59%. In addition, in series [4] (setting [5]), the “depression of fecal output” value came to 24%, the “fall in liver weight” value was 14%, the “fall in spleen iron content” value stood at 17% and the “increase in spleen weight” value was found to be 25%. Also, in series [4] (setting [5]), the “rise in urinary iron” value worked out at 93%. Moreover, in series [4] (higher dose, about 200 mg/kg i.p., compared with low dose), the “decrease in water imbibition” value is “about the same order of magnitude as that seen for the low dose”. Further, the “major route of excretion” value in series [4] (iron excretion) is given as “through the kidneys”. Further, in series [4] (low dose, about 20 mg/kg i.p.), the behavior entry is recorded as “not affected”; the “change in organ (spleen) weight, in words” value is listed as “not accompanied by a significant change in organ weight”; the “decline in hepatic (liver) weight” value is reported as 8%; the “decline in splenic iron” value came out at 11%. For the same molecule, in series [4] (low dose, about 20 mg/kg i.p.), the “decrease in hepatic iron” value is listed as 28%, the “fall in fecal output” value is 8%, the “increase in excretion of iron via the feces” value worked out at 21% and the “increase in spleen weight” value came to 4%. In series [4] (low dose, about 20 mg/kg i.p.), the “increase in urinary iron” value came out at 39%, the “necropsy: size or color of major organs” value is listed as “failed to reveal any changes in the size or color of major organs” and the “stimulation of urine production” value worked out at 24%. Besides, the “relative potency (highest fraction of iron excreted), ranking” value in series [4] (mouse, in vivo) was “greatest”. Also, the “toxicity to the kidneys, ranking” value in series [4] (of a number of compounds tested) is on record as “least toxic to the kidneys”. For the same molecule, in series [3] (24 hr), the “newly injected Pu excreted in 24 hr” value turned out to be 86%. The “Pu / actinide removal, in words” value in series [3] was “extremely effective; also recorded: most effective removal of such ions”. For the same molecule, the “Pu / actinide removal, in words” value in series [3] (listed as HOPOsubstituted desferrioxamine) is “most effective Pu removal agent”.

Turning to `CC(=O)N(O)CCCCCNC(=O)CCC(=O)N(O)CCCCCNC(=O)CCC(=O)N(O)CCCCCN` [Desferrioxamine, reference compound], in series [4] (250 mg/kg i.p.), the “Number Survivors” value is 240/240 and 150/150; the “Toxic Signs” value is listed as “none”.

On to `O=C(NCc1cc(CNC(=O)c2cccc(=O)n2O)cc(CNC(=O)c2cccc(=O)n2O)c1)c1cccc(=O)n1O` [HOPO--MECAM], for which the mortality at 168 h in series [1] lay within 50 to 100%.

“transferrin: transferrin, iron source in the iron removal test”: in series [2] (pH 7.4, assuming [HCO3^- ]=0.024M), the “pM value (-log [Fe^+3 ]) of transferrin” value was “about 23.6”.
